According to article PMC9636434, “Discovery of small molecule agonists of the Relaxin Family Peptide Receptor 2” (Communications Biology, 2022):
Values joined by “and” are separate entries in the source; they are usually repeats but may differ in a detail not shown here. Equal entries are not always repeated.

Target: RXFP2 (Homo sapiens, UniProt Q8WXD0)
Assay: INSL3 allosteric modulation experiment, HTRF cAMP, co-treatment 6641 and INSL3
Format: cell-based
Parameters: FLAG (N); expressed in transfected cells
Details: for % Eff: 6641 alone, replicates (1)-(3)
Text: We have further analyzed the effect of simultaneous activation of human RXFP2 with 6641 and INSL3 to evaluate possible allosteric modulation of INSL3 cAMP signaling by the small molecule (Supplementary Fig. 8).
The HTRF Gs dynamic cAMP assay kit (CisBio, Bedford, MA) was used to measure intracellular cAMP accumulation in HEK293T cells (ATCC, Manassas, VA)[56]. […] The cell stock was verified mycoplasma free and authenticated by ATCC. Transient transfection was accomplished by treating cells in a 6-well plate with a mixture of 2 μg plasmid and 6 μL Lipofectamine 2000 (Invitrogen, Waltham, MA) per manufacturer’s protocol and incubating overnight. For cAMP measurement in 96-well format, HEK293T cells stably transfected with human RXFP2 (HEK-RXFP2), human RXFP1 (HEK-RXFP1), mouse Rxfp1 (HEK-Rxfp1) or transiently transfected with human RXFP1-RXFP2 chimeric receptors were seeded between 7500 and 30,000 cells per well, depending on cell line responsiveness, in serum-free DMEM medium and incubated overnight at 37 °C, 5% CO2. After 18 h, cells were treated with a titration of compound, 2 μM forskolin, or DMSO vehicle. Control wells were also treated with a titration of INSL3 (Phoenix Pharmaceuticals, Burlingame, CA) or human recombinant relaxin 2 (Peprotech, Cranbury, NJ). For the RXFP2 antagonist experiment, cells were co-treated with 0.28 μM compound or 30 nM INSL3 and a titration of the INSL3 B dimer antagonist[38],[39]. For the INSL3 allosteric modulation experiment, cells were co-treated with 0.025, 0.0025, or 0.00025 μM of compound and a titration of INSL3. Cells were incubated for 1 h at 37 °C, 5% CO2, and then kit cAMP-d2 and anti-cAMP antibody were added per manufacturer protocol. Plates were incubated for 1 h at room temperature and the signal was read on a CLARIOstar plate reader (BMG Labtech, Ortenberg, Germany) at 665 and 620 nm emission wavelengths.
cAMP response in HEK293T cells expressing human RXFP2 was measured by HTRF
assay after treatment with a titration of INSL3 and suboptimal concentrations of 6641.
Results are expressed as mean ± SEM of 3 independent experiments.
(1 picture or pasted object on this page, not shown here)

Sequence of RXFP2 (Q8WXD0 whole entry): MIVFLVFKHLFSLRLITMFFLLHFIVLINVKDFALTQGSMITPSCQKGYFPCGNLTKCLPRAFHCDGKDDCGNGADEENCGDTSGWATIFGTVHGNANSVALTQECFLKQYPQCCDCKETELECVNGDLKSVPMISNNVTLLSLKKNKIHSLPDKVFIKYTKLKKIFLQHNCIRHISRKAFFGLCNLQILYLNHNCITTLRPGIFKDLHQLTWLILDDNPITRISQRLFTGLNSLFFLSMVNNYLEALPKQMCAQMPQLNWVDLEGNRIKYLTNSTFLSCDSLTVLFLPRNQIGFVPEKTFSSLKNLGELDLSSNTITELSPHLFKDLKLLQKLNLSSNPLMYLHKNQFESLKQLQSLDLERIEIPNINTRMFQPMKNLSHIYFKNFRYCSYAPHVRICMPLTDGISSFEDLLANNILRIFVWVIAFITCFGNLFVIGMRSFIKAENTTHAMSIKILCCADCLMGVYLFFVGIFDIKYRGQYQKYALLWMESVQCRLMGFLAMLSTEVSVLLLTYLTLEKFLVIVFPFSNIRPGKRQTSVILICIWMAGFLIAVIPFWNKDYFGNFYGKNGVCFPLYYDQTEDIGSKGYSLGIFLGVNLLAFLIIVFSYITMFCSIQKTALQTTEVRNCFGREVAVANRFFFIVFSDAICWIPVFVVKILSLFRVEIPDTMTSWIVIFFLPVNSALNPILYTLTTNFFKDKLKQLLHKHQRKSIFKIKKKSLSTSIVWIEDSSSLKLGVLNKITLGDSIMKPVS

Q: Which results are given for `O=C1Nc2ccc(-c3cc(C(F)(F)F)cc(C(F)(F)F)c3)cc2C(=O)N2CCN(C(=O)COc3ccc(OC(F)(F)F)cc3I)C[C@@H]12` [compound 6641]?
A: effect of co-stimulation with INSL3 on cAMP production (0.025, 0.0025 or 0.00025 μM compound and titration of INSL3): simple additive effect; % Eff (Log [M] -4.60): 75.1113% and 97.1676% and 94.1213%; % Eff (Log [M] -5.60): 93.2943% and 114.987% and 113.554%; % Eff (Log [M] -6.60): 74.6686% and 120.861% and 97.4942%; % Eff (Log [M] -7.60): 50.914% and 51.0623% and 52.8348%; % Eff (Log [M] -8.60): 8.681% and 8.081% and 10.3062%; % Eff (Log [M] -9.60): 0.2079% and -1.122% and -1.231%
